The record followed here is publication PMC12040169 (PLOS Biology, 2025).

The data set in a line: in vitro. As to conditions: human, hela cells, % viability.
Take `Cc1cc(OCc2nc(-c3ccc(NC(=O)c4ccc5c(c4)OCO5)cc3)no2)ccc1Cl` [CBK266673]: the viability at 28.5 h, 10 µM was 95.7%.

As to `Cc1nc(C)c(C(=O)NC2CCCNC2=O)s1` (stereo not shown) [CBK281628], the viability at 28.5 h, 10 µM came out at 86.8%. The result for `O=C(NCc1ccccc1Cl)N(Cc1cccc(Cl)c1)CC1CCNCC1` [CBK049762] reads 80.4%; that for `Cc1cccc(C)c1N(CC(=O)O)S(C)(=O)=O` [CBK262329], 102%.

Consider `O=C1NC2(CC3CCC2N3Cc2ccco2)Nc2ccccc21` (stereo not shown) [CBK284446], for which the viability at 28.5 h, 10 µM was 91.8%. Consider `NC(=O)[C@H]1C[C@@H](O)[C@H](O)[C@H]2[C@@H]1S/C(=N\c1ccc(Cl)cc1)N2Cc1ccccc1` [CBK288940], for which the viability at 28.5 h, 10 µM was 94.9%. With `CSCCCNC(=O)c1ccc2[nH]ccc2c1` [CBK149056], the viability at 28.5 h, 10 µM is 100%. On to `Cc1cccc(-c2csc3c(=O)[nH]c(N4CCC(C(=O)N5CCOCC5)CC4)nc23)c1` [CBK215644], for which the viability at 28.5 h, 10 µM came to 89.7%. The value for `Nc1ncc([C@H]2C[C@@H](O)[C@@H](CO)O2)c(=O)[nH]1` [CBK201246] was 79.8%; that for `N#Cc1nccnc1N1CCN(Cc2ccc3c(c2)OCO3)CC1` [CBK011284] was 83.3%. For the compound `O=C(Nc1cccc(N2CCNCC2)c1)c1ccccc1` [CBK028255T], the viability at 28.5 h, 10 µM was 114%. `COc1ccc(OC)c(-c2nc(Nc3ccccc3Cl)sc2CC(=O)O)c1` [CBK264190]: the viability at 28.5 h, 10 µM stood at 96.4%.

With `COCc1cccc(Nc2ncnc3c2cnn3CCO)c1` [CBK306214], the viability at 28.5 h, 10 µM amounted to 93.2%. The value for `CCCn1c(SCc2nc(N)nc(Nc3ccccc3CC)n2)n[nH]c1=O` [CBK296966] was 86.6%; that for `Cn1c(N)nc2c(ncn2[C@H]2C[C@@H](O)[C@@H](CO)O2)c1=O` [CBK201215] was 105%. The value for `Cn1c(=O)n(CCN2CCOCC2)c(=O)c2c1nc1n2CCN1c1ccccc1` [CBK269328] was 95.1%; that for `Cc1cccc(-n2ncc3c(=O)n(CC(=O)Nc4ccccc4)cnc32)c1C` [CBK287693] was 95.1%. As to `O=C(O)c1ccccc1-c1ccc(-c2cc(C(=O)O)c3cc(F)ccc3n2)o1` [CBK269051], the viability at 28.5 h, 10 µM was determined as 98.8%. With `CCCN1CCC(NC(=O)c2cc(COc3cccc(F)c3)[nH]n2)CC1` [CBK306753], the viability at 28.5 h, 10 µM was determined as 88.5%.

With `CC(C)(C)OC(=O)N(Cc1cccs1)S(C)(=O)=O` [CBK019338], the viability at 28.5 h, 10 µM was found to be 94.1%. For `Cc1nn(Cc2ccccc2)c(C)c1NC(=O)CSc1nc2c(c(C(F)(F)F)n1)CCc1ccccc1-2` [CBK266112], the viability at 28.5 h, 10 µM is 105%. For `Cc1sc2nc(SCC(=O)c3c[nH]c4ccccc34)nc(O)c2c1C` [CBK264068], the viability at 28.5 h, 10 µM stood at 80.9%. As for `N#Cc1ccc(-c2cncc(NC3CCC(O)CC3)n2)cc1` (stereo not shown) [CBK166007T], the viability at 28.5 h, 10 µM amounted to 88.2%. The value for `Cc1noc(C)c1S(=O)(=O)Nc1cccc(C(=O)N2CCN(C)CC2)c1` [CBK038972] was 101%; that for `O=C(O)c1cccc(-c2cnc(NCC3CC3)c(C(=O)NCC(F)(F)F)c2)c1` [CBK106420] was 117%; that for `CCOC(=O)C1CSCN1C(=O)c1cnn(C(CC)CC)c1C` (stereo not shown) [CBK304759] was 106%. The result for `Cc1nc2c(c(=O)[nH]1)CCN(Cc1cn(C(C)C)c3ccccc13)C2` [CBK283991] reads 105%. With `CS(=O)(=O)c1ccc(-c2cnc(N)c3ncccc23)cc1` [CBK067593], the viability at 28.5 h, 10 µM came out at 90.5%.

For the compound `CN1CCN(Cc2ccccc2[N+](=O)[O-])CC1` [CBK261524], the viability at 28.5 h, 10 µM is 85.5%. Take `Cn1c(CN2CCN(C(=O)NC3CCCCC3)CC2)nc2cc([N+](=O)[O-])ccc21` [CBK268266]: the viability at 28.5 h, 10 µM amounted to 97.1%. The value for `CCOCCCNC(=O)c1cnn2c(C)c(Cc3cccc(OC)c3)c(C)nc12` [CBK162056] was 113%; that for `CCOC(=O)CN1CCN(S(=O)(=O)c2cc(Cl)ccc2Cl)CC1` [CBK044628] was 91.1%; that for `COc1ccc(OCCC(=O)O)cc1` [CBK057706] was 86.2%.

Turning to `Nc1cccc(Oc2ccc(C(c3ccc(Oc4cccc(N)c4)cc3)(C(F)(F)F)C(F)(F)F)cc2)c1` [CBK261645], the viability at 28.5 h, 10 µM was found to be 103%. As for `CCCc1nc(NC(c2cccc(C)n2)C2CC2)c2cnn(C)c2n1` (stereo not shown) [CBK306795], the viability at 28.5 h, 10 µM was determined as 88%. For the compound `CCn1cc(C(=O)Nc2nccs2)c(=O)c2ccc(C)nc21` [CBK307628], the viability at 28.5 h, 10 µM was 78.3%.

As to `O=C(NC1CCN(Cc2c(F)cccc2Cl)CC1)C1CCN(C(=O)OCc2ccccc2)CC1` [CBK074720], the viability at 28.5 h, 10 µM was 108%. For `O=C(CCN1C(=O)c2cc(Cl)c(Cl)cc2C1=O)Nc1cccc(-c2cnc3ccccc3n2)c1` [CBK268575], the viability at 28.5 h, 10 µM was 114%.

Turning to `CC(=O)c1ccc(-c2nccnc2N(C)Cc2ccccc2)s1` [CBK037504], the viability at 28.5 h, 10 µM turned out to be 112%. The result for `CC1CCN(C(=O)CC(NC(N)=O)c2cccc(Br)c2)CC1` (stereo not shown) [CBK305788] reads 95.3%; that for `CCC(=O)NCCc1c[nH]c2ccc([N+](=O)[O-])cc12` [CBK088059], 110%. The result for `COc1ccccc1C1OC(=O)CC1C(=O)N1CCN(c2ccc(Cl)cc2)CC1` (stereo not shown) [CBK091332] reads 86.2%; that for `O=C(O)C1CCCN(C(=O)NCc2ccc(F)cc2)C1` (stereo not shown) [CBK161364], 95.7%. The result for `CCN(CC)C(=O)CN1C(=O)[C@H]2CCCN2C(=O)c2ccccc21` [CBK286319] reads 95.5%; that for `O=C(Nc1ccc(Cl)cc1Cl)C1CC2CCC1C2` (stereo not shown) [CBK058237], 102%; that for `Cc1cccc(-c2ncc(C(=O)Nc3nccs3)cc2-c2ccco2)c1` [CBK037427], 86.3%.

Turning to `O=C(Cc1csc(-c2c(Cl)cccc2Cl)n1)NC[C@H]1CC[C@H](C(=O)O)CC1` [CBK299767], the viability at 28.5 h, 10 µM was 85.7%. Take `Cc1nc(N)nc(NCCC2CCCOC2)c1Cl` (stereo not shown) [CBK307353]: the viability at 28.5 h, 10 µM is 97.1%. The result for `O=C(c1ccco1)N1CCc2cc(-c3cn4c(n3)CCCC4)ccc21` [CBK282893] reads 98.8%.

For the compound `Cc1cc(NCC2CCCO2)n2ncc(-c3ccccc3)c2n1` (stereo not shown) [CBK304530], the viability at 28.5 h, 10 µM came out at 83.8%. Regarding `COc1ccc([C@]23CN(C)C[C@H]2CCN(C(=O)c2cccc(Br)c2)C3)cc1OC` [CBK075111T], the viability at 28.5 h, 10 µM turned out to be 96.7%. The value for `COc1ccc(/C=N/NC(=O)CSc2nnc(C)n2-c2ccccc2)cc1` [CBK262812] was 114%; that for `COc1cc(OC)nc(C(NC(=O)C2CCN(CCc3c[nH]c4ccccc34)CC2)c2ccccc2C)n1` (stereo not shown) [CBK148101] was 104%.

For `CCN=C(S)NNC(=O)CCn1c2ccccc2c2ccccc21` [CBK262564], the viability at 28.5 h, 10 µM amounted to 93.8%.

`Cn1cc(C(=O)NCC(c2ccccc2F)N2CCCC2)ccc1=O` (stereo not shown) [CBK281950]: the viability at 28.5 h, 10 µM came out at 83.9%. The result for `Cc1ncc(CN(C)C(C)C(=O)Nc2ccccc2N2CCCC2=O)s1` (stereo not shown) [CBK298274] reads 92%; that for `CC(C)(C)OC(=O)N1CCCC(C(=O)NCc2ccco2)C1` (stereo not shown) [CBK305102], 99.1%.

For the compound `Cc1n[nH]c(=O)c2c(C)noc12` [CBK001281], the viability at 28.5 h, 10 µM was 101%. Regarding `Cc1noc(C)c1S(=O)(=O)Nc1ccc2[nH]ncc2c1` [CBK062518], the viability at 28.5 h, 10 µM turned out to be 87.8%. For the compound `CC(C)Nc1cncc(Sc2ccccc2N)n1` [CBK093726], the viability at 28.5 h, 10 µM was 91.7%. Regarding `COc1ccccc1Oc1nnnn1-c1ccc(C(N)=O)cc1` [CBK267988], the viability at 28.5 h, 10 µM amounted to 96%. The result for `Cn1cc(CN2CCC(C(=O)NC(c3ccc4c(c3)OCO4)c3ccccn3)CC2)c2ccccc21` (stereo not shown) [CBK148183] reads 94%; that for `Cc1ccc(NC(=O)c2cc([N+](=O)[O-])ccc2NCCN2C(=O)c3ccccc3C2=O)cc1` [CBK267159], 87.5%. Regarding `O=c1[nH]c2ncc(-c3ccoc3)nc2n1Cc1ccco1` [CBK064639], the viability at 28.5 h, 10 µM was 102%. The result for `COC(=O)[C@@H](C)NC(=O)[C@H]1CN(C(=O)Nc2ccccc2)CCN1C(C)=O` [CBK289627] reads 86.3%; that for `Cc1cc(OCC(=O)Nc2nc[nH]n2)ccc1Cl` [CBK264321], 117%; that for `COCCNC(=O)C1CCCCC1C(=O)O` (stereo not shown) [CBK269135], 108%. The value for `Cc1cc(=O)oc2cc(OC(=O)C(Cc3ccccc3)N3C(=O)c4ccccc4C3=O)ccc12` (stereo not shown) [CBK033943] was 91.1%; that for `Cc1csc2c(C3CCCN(C(=O)c4cc[nH]n4)C3)nc(C)n12` (stereo not shown) [CBK285238] was 88.1%. The value for `NCCCc1c(-c2ccc(Cl)cc2Cl)[nH][nH]c1=O` [CBK288367] was 86.8%. In the case of `Cc1nc(Cl)c(C(=O)NCCc2ccc(S(=O)(=O)NC(=O)NC3CCCCC3)cc2)nc1C` [CBK011777], the viability at 28.5 h, 10 µM was found to be 91.3%.

As for `N#C/C(=C\c1ccc(OCC(=O)c2ccc(F)cc2)cc1)c1nc(-c2cc3ccccc3oc2=O)cs1` [CBK266769], the viability at 28.5 h, 10 µM was found to be 90.6%.

With `Cc1sc(NC(=O)c2ccc(F)cc2Cl)c(C(=O)NCc2cccnc2)c1C` [CBK270319], the viability at 28.5 h, 10 µM was 82.9%. Turning to `Cc1ccn2cc(C(=O)NCCSc3nccn3C)nc2c1` [CBK281417], the viability at 28.5 h, 10 µM was found to be 104%. `c1ccc(CC2CCN(Cc3cccnc3)CC2)cc1` [CBK126381]: the viability at 28.5 h, 10 µM is 95.9%. The value for `Cc1c(/C=C2\SC(=S)NC2=O)c2ccccc2n1Cc1ccccc1Cl` [CBK263946] was 101%; that for `Cc1ccc(S(=O)(=O)NCC(=O)Nc2cc3ccccc3c(Br)n2)cc1` [CBK063300] was 101%; that for `COC(=O)c1ccc(S(=O)(=O)N2CCC(C)CC2)cc1` [CBK070414] was 98.1%. The result for `O=C(O)CCc1nn2c3ccccc3n(CCN3CCCCC3)c2nc1=O` [CBK267519] reads 97.5%.

What is called viability is a read-out of living cells in per cent, often relative to untreated cells.
